Laboratory results reported in ChEMBL document CHEMBL5543127, “Design, Synthesis, and Biological Evaluation of 2-Phenoxyalkylhydrazide Benzoxazole Derivatives as Quorum Sensing Inhibitors with Strong Antibiofilm Effect” (J Med Chem, 2024).
Converted amounts (≈) assume the structure as drawn. The source made the active and inactive calls. The calls are words filed in the database; no cut-off is given here.

Assays:
Pseudomonas aeruginosa [1] = test: Anti-microbial activity against Pseudomonas aeruginosa PAO1 incubated for 20 hrs By CLSI based micro-dilution method; assay type: functional
Staphylococcus aureus [2] = test: Anti-microbial activity against methicillin-resistant Staphylococcus aureus ATCC43300 incubated for 20 hrs By CLSI based micro-dilution method; assay type: functional
Pseudomonas aeruginosa [3] = test: Antibiofilm activity against logarithmic growth phase Pseudomonas aeruginosa PAO1 assessed as inhibition of biofilm formation at 16 microg/ml incubated for 20 hrs by crystal violet staining based analysis; assay type: functional; details: dose 16.0 µg/ml
Pseudomonas aeruginosa [4] = test: Induction of anti-bacterial effect in Pseudomonas aeruginosa PAO1 assessed as synergistic effect by measuring reduction in bacterial survival in presence of ciprofloxacin at 16 to 128 microg/ml measured after 24 hrs incubation; assay type: functional, organism-based; details: dose 16-128 µg/ml
Pseudomonas aeruginosa [5] = test: Induction of anti-bacterial effect in Pseudomonas aeruginosa PAO1 assessed as synergistic effect by measuring reduction in bacterial survival in presence of ciprofloxacin measured after 24 hrs incubation; assay type: functional, organism-based; details: dose 8-128 µg/ml
Staphylococcus aureus [6] = test: Anti-microbial activity against erythromycin-susceptible Staphylococcus aureus ATCC25923 incubated for 20 hrs By CLSI based micro-dilution method; assay type: functional
Pseudomonas aeruginosa [7] = test: Induction of anti-bacterial effect in Pseudomonas aeruginosa PAO1 assessed as synergistic effect by measuring reduction in bacterial survival in presence of ciprofloxacin at 128 microg/ml measured after 24 hrs incubation relative to control; assay type: functional; details: dose 128 µg/ml
Pseudomonas aeruginosa [8] = test: Antibiofilm activity against logarithmic growth phase Pseudomonas aeruginosa PAO1 assessed as inhibition of biofilm formation at 32 microg/ml incubated for 20 hrs by crystal violet staining based analysis; assay type: functional
Pseudomonas aeruginosa [9] = test: Induction of anti-bacterial effect in Pseudomonas aeruginosa PAO1 assessed as synergistic effect by measuring reduction in bacterial survival in presence of clarithromycin measured after 24 hrs incubation; assay type: functional, organism-based; details: dose 8-128 µg/ml
[10] = Inhibition of quorum sensing system in Pseudomonas aeruginosa PAO1 at logarithmic growth period assessed as inhibition of pyocyanin production at 102.4 microg/ml incubated for 18 hrs by pyocyanin inhibition assay; details: dose 102.4 µg/ml
Pseudomonas aeruginosa [11] = test: Anti-microbial activity against penicillin-susceptible Pseudomonas aeruginosa 27853 incubated for 20 hrs By CLSI based micro-dilution method; assay type: functional
Erythrocyte = test: Hemolytic activity in mouse RBC isolated from eye ball assessed as hemolysis at 256 microg/ml incubated for 1 hr; assay type: toxicity, cell-based; details: dose 256 µg/ml
Pseudomonas aeruginosa [12] = test: Induction of anti-bacterial effect in Pseudomonas aeruginosa PAO1 assessed as synergistic effect by measuring reduction in bacterial survival in presence of clarithromycin at 16 to 128 microg/ml measured after 24 hrs incubation; assay type: functional, organism-based; details: dose 16-128 µg/ml
Bacillus pumilus = test: Anti-microbial activity against Bacillus pumilus CMCC63202 incubated for 20 hrs By CLSI based micro-dilution method; assay type: functional
Pseudomonas aeruginosa [13] = test: Inhibition of protease in logarithmic growth phase Pseudomonas aeruginosa PAO1 assessed as inhibition rate at 102.4 microg/ml measured after 32 hrs; details: dose 102.4 µg/ml
Bacillus subtilis = test: Anti-microbial activity against Bacillus subtilis ATCC9372 incubated for 20 hrs By CLSI based micro-dilution method; assay type: functional
Escherichia coli = test: Anti-microbial activity against penicillin-susceptible Escherichia coli ATCC25922 incubated for 20 hrs By CLSI based micro-dilution method; assay type: functional
Pseudomonas aeruginosa [14] = test: Antibacterial activity against Pseudomonas aeruginosa PAO1 at logarithmic growth phase assessed as growth inhibition at 153.6 microg/ml measured upto 25 hrs by growth curve assay; assay type: functional, organism-based; details: dose 153.6 µg/ml
Pseudomonas aeruginosa [15] = test: Antibacterial activity against Pseudomonas aeruginosa 27853 at logarithmic growth phase assessed as growth inhibition at 153.6 microg/ml measured upto 25 hrs by growth curve assay; assay type: functional, organism-based; details: dose 153.6 µg/ml
Pseudomonas aeruginosa [16] = test: Anti-virulence activity against logarithmic growth phase Pseudomonas aeruginosa PAO1 assessed as inhibition of Rhamnolipid production at 102.4 microg/ml measured after 24 hrs; assay type: functional
Pseudomonas aeruginosa [17] = test: Induction of morphological changes in biofilm of Pseudomonas aeruginosa PAO1 assessed as biofilm damage at 102.4 microg/ml measured after 24 hrs by scanning electron microscopy; assay type: functional, organism-based; details: dose 102.4 µg/ml

Row | SMILES | MIC (Pseudomonas aeruginosa [1]) [µg/mL] | MIC (Staphylococcus aureus [2]) [µg/mL] | inhibition (Pseudomonas aeruginosa [3]) | Activity (Pseudomonas aeruginosa [5]) | MIC (Staphylococcus aureus [6]) [µg/mL] | inhibition at 32 µg/mL (Pseudomonas aeruginosa [8]) [%] | Activity (Pseudomonas aeruginosa [9]) | inhibition [10] | MIC (Pseudomonas aeruginosa [11]) [µg/mL] | Activity (Erythrocyte) | MIC (Bacillus pumilus) [µg/mL] | inhibition (Pseudomonas aeruginosa [13]) | MIC (Bacillus subtilis) [µg/mL] | MIC (Escherichia coli) [µg/mL] | Activity (Pseudomonas aeruginosa [14]) | Activity (Pseudomonas aeruginosa [15]) | inhibition at 102.4 µg/mL (Pseudomonas aeruginosa [16]) [%] | other results
1 | O=C(CCCCOc1ccc(Cl)cc1)NNc1nc2ccccc2o1 | > 512 | 512 (≈ 1420 µM) | Active | Dose-Dependent Effect | 128 (≈ 356 µM) | > 25.4 | Dose-Dependent Effect | Active | 512 (≈ 1420 µM) | Non-Toxic | > 512 | inactive | 512 (≈ 1420 µM) | > 512 | – | – | – | Activity (Pseudomonas aeruginosa [4]): Active; Activity (Pseudomonas aeruginosa [7]): >90%; Activity (Pseudomonas aeruginosa [12]): Active
2 | O=C(CCCCOc1ccc(F)cc1)NNc1nc2ccccc2o1 | > 512 | > 512 | Active | Dose-Dependent Effect | > 512 | > 25.4 | Dose-Dependent Effect | 53.6% | 512 (≈ 1490 µM) | Non-Toxic | > 512 | inactive | > 512 | > 512 | – | – | – | Activity (Pseudomonas aeruginosa [4]): Active; Activity (Pseudomonas aeruginosa [7]): >90%; Activity (Pseudomonas aeruginosa [12]): Active
3 | O=C(CCCOc1ccc(C(F)(F)F)cc1)NNc1nc2ccccc2o1 | > 512 | 256 (≈ 675 µM) | Active | Dose-Dependent Effect | 256 (≈ 675 µM) | > 25.4 | Dose-Dependent Effect | inactive | 256 (≈ 675 µM) | Non-Toxic | > 512 | 30% | 512 (≈ 1350 µM) | > 512 | inactive | inactive | > 40 | –
4 | O=C(CCCCOc1ccc(Cl)cc1)NNc1nc2ccccc2s1 | > 512 | 512 (≈ 1360 µM) | Active | – | 256 (≈ 681 µM) | > 25.4 | – | Active | > 512 | – | 256 (≈ 681 µM) | – | > 512 | > 512 | inactive | inactive | > 40 | –
5 | CCCCCCCCCCC(=O)N/N=c1\sc2ccccc2n1C | > 512 | > 512 | Active | Dose-Dependent Effect | > 512 | > 25.4 | Dose-Dependent Effect | – | > 512 | Non-Toxic | > 512 | > 20% | > 512 | > 512 | inactive | inactive | – | Activity (Pseudomonas aeruginosa [4]): Active; Activity (Pseudomonas aeruginosa [7]): >90%; Activity (Pseudomonas aeruginosa [12]): Active
6 | CC[C@H]1OC(=O)[C@H](C)[C@@H](O[C@H]2C[C@@](C)(OC)[C@@H](O)[C@H](C)O2)[C@H](C)[C@@H](O[C@@H]2O[C@H](C)C[C@H](N(C)C)[C@H]2O)[C@](C)(O)C[C@@H](C)CN(C)[C@H](C)[C@@H](O)[C@]1(C)O [AZITHROMYCIN] | 256 (≈ 342 µM) | 256 (≈ 342 µM) | – | – | 0.25 (≈ 0.334 µM) | – | – | – | 16 (≈ 21.4 µM) | – | 0.25 (≈ 0.334 µM) | – | 0.25 (≈ 0.334 µM) | 128 (≈ 171 µM) | – | – | – | Activity (Pseudomonas aeruginosa [17]): Active
7 | Cc1ccc(C(=O)NNc2nc3ccccc3s2)cc1 | > 512 | 256 (≈ 903 µM) | Active | Dose-Dependent Effect | 512 (≈ 1810 µM) | > 25.4 | Dose-Dependent Effect | 62.8% | 512 (≈ 1810 µM) | Non-Toxic | 256 (≈ 903 µM) | > 20% | 512 (≈ 1810 µM) | > 512 | inactive | inactive | – | –
8 | O=C(CCCCOc1ccc(F)cc1)NNc1nc2ccc(Cl)cc2o1 | > 512 | 256 (≈ 678 µM) | Active | – | 512 (≈ 1360 µM) | > 25.4 | – | Active | > 512 | – | 256 (≈ 678 µM) | inactive | 512 (≈ 1360 µM) | > 512 | – | – | > 40 | –
9 | O=C(CCCOc1cccc(C(F)(F)F)c1)NNc1nc2ccccc2o1 | > 512 | 512 (≈ 1350 µM) | Active | Dose-Dependent Effect | 256 (≈ 675 µM) | > 25.4 | Dose-Dependent Effect | inactive | 256 (≈ 675 µM) | – | > 512 | 30% | 512 (≈ 1350 µM) | > 512 | inactive | inactive | > 40 | –
10 | O=C(NNc1nc2ccccc2s1)c1ccccc1F | > 512 | > 512 | Active | Dose-Dependent Effect | > 512 | > 25.4 | Dose-Dependent Effect | 62.8% | 512 (≈ 1780 µM) | Non-Toxic | 512 (≈ 1780 µM) | > 20% | 512 (≈ 1780 µM) | > 512 | inactive | inactive | – | –
11 | O=C(CCCCOc1cccc(F)c1)NNc1nc2ccccc2o1 | > 512 | > 512 | Active | Dose-Dependent Effect | 512 (≈ 1490 µM) | > 25.4 | Dose-Dependent Effect | Active | 512 (≈ 1490 µM) | Non-Toxic | > 512 | inactive | > 512 | > 512 | – | – | 52.1 | Activity (Pseudomonas aeruginosa [4]): Active; Activity (Pseudomonas aeruginosa [7]): >90%; Activity (Pseudomonas aeruginosa [12]): Active
12 | COc1ccc(OCCCCC(=O)NNc2nc3ccccc3o2)cc1 | > 512 | > 512 | Active | Dose-Dependent Effect | 512 (≈ 1440 µM) | > 25.4 | Dose-Dependent Effect | Active | 512 (≈ 1440 µM) | Non-Toxic | > 512 | 14.6% | 512 (≈ 1440 µM) | > 512 | – | – | 52.1 | –
13 | COc1ccc(OCCCC(=O)NNc2nc3ccccc3o2)cc1 | > 512 | 128 (≈ 375 µM) | Active | – | 64 (≈ 187 µM) | > 25.4 | – | inactive | 128 (≈ 375 µM) | – | 512 (≈ 1500 µM) | 30% | 512 (≈ 1500 µM) | > 512 | – | – | > 40 | –
14 | O=C(CCCCOc1ccc(Cl)cc1)NNc1nc2ccc(Cl)cc2o1 | > 512 | 256 (≈ 649 µM) | Active | Dose-Dependent Effect | 256 (≈ 649 µM) | > 25.4 | Dose-Dependent Effect | Active | > 512 | – | 256 (≈ 649 µM) | inactive | 512 (≈ 1300 µM) | > 512 | – | – | > 40 | –
